Reference: US20240344082A1, “VIRAL […] USE IN ENHANCING T-CELL PRIMING DURING VACCINATION” (GeoVax, Inc., priority 2021, published 2024)

What was measured:
[1] = test system: antigen-specific CD8+ T-cell expansion; settings: in combination with adenovirus-based or irradiated sporozoite-based malaria vaccine; immune-competent mice; cited from earlier work
[2] = test system: splenic PyCS-specific, IFN-γ-secreting CD8+ T cells; parameters: species or system mice; settings: mouse, in vivo, sc

For “CRRTSTGQISTLRVNITAPLSQ [LD01, synthetic peptide used as positive control]”, the “antigen-specific CD8+ T-cell expansion” value [1] is given as “enhances” and the “antigen-specific CD8+ T cell numbers relative to AdPyCS alone” value [2] is given as “significantly increased”.
